Laboratory results published in patent publication US20250099625A1, “TANDEM MOLECULAR FLUORESCENCE REPORTERS FOR DETECTION OF TUMOR-INFILTRATING LEUKOCYTES” (Nanyang Technological University, priority 2021, published 2025).

System: 4T1 tumor
Experiment: Therapeutic efficacy, 4T1 tumor-bearing mice
Procedure: (c) Tumor growth curves (n=6) and (d) overall survival curves (n=6) of 4T1 tumor-bearing mice. […] 95% confidence intervals were obtained by two-sided Student t-test analysis. […] Data are presented as mean±SD and analyzed by two-tailed Student's t-test.
FIG. 47 depicts the tumor control rate and body weights of mice. […] (c) Body weights of 4T1 tumor-bearing mice after intraperitoneal injection of saline, Oxa (6 mg/kg), aPD-L1 (10 mg/kg) and aPD-L1/Oxa at day 0, 2 and 4. […] Statistical significance was performed by two-tailed Student's t-test. ns: not significant, *P<0.05, **P<0.01, ***P<0.001, ****P<0.0001.
After tumor inoculation for one week, 4T1 tumor-bearing mice were administrated with aPD-L1 (10 mg/kg), Oxa (6 mg/kg) or the combination of aPD-L1 and Oxa (aPD-L1/Oxa) intraperitoneally every two days for three times.
The tumor control rate was calculated with the following formulas:
Vt0 means the volume of tumor on day 0, Vt means the volume at certain time, c means the control group (saline, without irradiation), and s means the group needed calculation.

## O=C1[O][Pt]2([NH][C@@H]3CCCC[C@H]3[NH]2)[O]C1=O [Oxa, oxaliplatin]
  survival rate: 50%
intraperitoneal, every two days for three times
  tumor control rate (TCR): 48%
